Source: patent US6160004A, “C-10 carbon-substituted artemisinin-like trioxane compounds having antimalarial, antiproliferative and antitumor activities” (priority 1998, dated 2000)

Assays:
PC-3 = assay: cells; assay type: cell-based; conditions: Homo sapiens; PC-3, prostate cancer, 48 h; read-out: Log10 TGI
RPMI-8226 = assay: NCI 60 cell line panel screening assay (SRB), RPMI-8226; assay type: cell-based; conditions: Homo sapiens; RPMI-8226, leukemia, 48 h; read-out: Log10 GI50 (converted)
HCT-15 = assay: cells; assay type: cell-based; conditions: Homo sapiens
SW-620 = assay: NCI 60 cell line panel screening assay (SRB), SW-620; assay type: cell-based; conditions: Homo sapiens; SW-620, colon cancer, 48 h; read-out: Log10 GI50 (converted)
MCF7 = assay: cells; assay type: cell-based; conditions: Homo sapiens; for IC (TGI): read-out: Log10 TGI
HS 578T = assay: cells; assay type: cell-based; conditions: Homo sapiens; HS 578T, breast cancer, 48 h; read-out: Log10 GI50 (converted)
SNB-19 = assay: cells; assay type: cell-based; conditions: Homo sapiens; for IC (TGI): read-out: Log10 TGI
SK-MEL-28 = assay: cells; assay type: cell-based; conditions: Homo sapiens
U251 = assay: cells; assay type: cell-based; conditions: Homo sapiens, U-251; U251, CNS cancer, 48 h; read-out: Log10 GI50 (converted)
SR = assay: cells; assay type: cell-based; conditions: Homo sapiens, 48 h; for CC50: read-out: Log10 LC50 (converted)
SNB-75 = assay: cells; assay type: cell-based; conditions: Homo sapiens
COLO 205 = assay: NCI 60 cell line panel screening assay (SRB), COLO 205; assay type: cell-based; conditions: Homo sapiens; COLO 205, colon cancer, 48 h; read-out: Log10 GI50 (converted)
HOP-62 = assay: cells; assay type: cell-based; conditions: Homo sapiens, HOP-62, non-small cell lung cancer, 48 h
UACC-62 = assay: cells; assay type: cell-based; conditions: Homo sapiens, UACC-62, melanoma, 48 h; for GI50: read-out: Log10 GI50 (converted); for IC (TGI): read-out: Log10 TGI
UACC-257 = assay: cells; assay type: cell-based; conditions: Homo sapiens, UACC-257, 48 h; for IC (TGI): read-out: Log10 TGI (converted)
HOP-92 = assay: cells; assay type: cell-based; conditions: Homo sapiens
60 cell line panel = assay: NCI 60 cell line panel, whole panel; conditions: panel
MOLT-4 = conditions: MOLT-4, FIG. 6
A498 = assay: cells; assay type: cell-based; conditions: Homo sapiens; for IC (TGI): read-out: Log10 TGI
OVCAR-8 = assay: cells; assay type: cell-based; conditions: Homo sapiens
SN12C = assay: NCI 60 cell line panel screening assay (SRB), SN12C; assay type: cell-based; conditions: Homo sapiens, 48 h; for IC (TGI): renal cancer, read-out: Log10 TGI
KM12 = assay: cells; assay type: cell-based; conditions: Homo sapiens; for GI50: KM12, colon cancer, 48 h, read-out: Log10 GI50 (converted)
K-562 = assay: cells; assay type: cell-based; conditions: Homo sapiens, K562, K-562, leukemia, 48 h
NCI-H23 = assay: cells; assay type: cell-based; conditions: Homo sapiens, NCI-H23, non-small cell lung cancer, 48 h
NCI-H226 = assay: cells; assay type: cell-based; conditions: Homo sapiens
OVCAR-3 = assay: cells; assay type: cell-based; conditions: Homo sapiens
SF-268 = assay: cells; assay type: cell-based; conditions: Homo sapiens
SK-OV-3 = assay: cells; assay type: cell-based; conditions: Homo sapiens
BT-549 = assay: cells; assay type: cell-based; conditions: Homo sapiens, BT-549, 48 h, read-out: Log10 LC50 (converted)
NCI-H322M = assay: cells; conditions: Homo sapiens, 48 h, read-out: Log10 LC50 (converted)
CAKI-1 = assay: NCI 60 cell line panel screening assay (SRB), CAKI-1; assay type: cell-based; conditions: Homo sapiens; CAKI-1, renal cancer, 48 h; read-out: Log10 TGI (converted)
[1] = read-out: Log10 GI50 (converted)
[2] = read-out: Log10 TGI (converted)
[3] = read-out: Log10 LC50 (converted)

`C[C@@H]1CC[C@H]2[C@@H](C)C(=O)O[C@@H]3O[C@@]4(C)CC[C@@H]1[C@]32OO4` [Artemisinin] showed an IC (TGI) (PC-3) greater than 100 µM, a GI50 (RPMI-8226) greater than 100 µM and a GI50 (HCT-15; HCT-15, colon cancer, 48 h, read-out: Log10 GI50 (converted)) greater than 100 µM. For the same compound, the IC (TGI) (HCT-15; HCT-15, colon cancer, 48 h, read-out: Log10 TGI) was greater than 100 µM, the GI50 (SW-620) was greater than 100 µM and the GI50 (MCF7; MCF7, breast cancer, 48 h, read-out: Log10 GI50 (converted)) was greater than 100 µM. The IC (TGI) (MCF7; MCF7, breast cancer, 48 h) was greater than 100 µM, the GI50 (HS 578T) was greater than 100 µM and the GI50 (SNB-19; SNB-19, CNS cancer, 48 h, read-out: Log10 GI50 (converted)) was greater than 100 µM. The IC (TGI) (SNB-19; SNB-19, CNS cancer, 48 h) was greater than 100 µM, the GI50 (SK-MEL-28; SK-MEL-28, melanoma, 48 h, read-out: Log10 GI50 (converted)) was greater than 100 µM and the GI50 (U251) was greater than 100 µM. The CC50 (SR) was greater than 100 µM, the GI50 (SR; leukemia, read-out: Log10 GI50 (converted)) was greater than 100 µM and the GI50 (SNB-75; SNB-75, CNS cancer, 48 h, read-out: Log10 GI50 (converted)) was greater than 100 µM. The GI50 (COLO 205) was greater than 100 µM, the GI50 (HOP-62; [1]) was greater than 100 µM and the GI50 (UACC-62) was greater than 100 µM. It also gave an IC (TGI) (UACC-62) greater than 100 µM, a GI50 (UACC-257; [1]) greater than 100 µM and an IC (TGI) (UACC-257) greater than 100 µM. The GI50 (HOP-92; HOP-92, non-small cell lung cancer, 48 h, read-out: Log10 GI50 (converted)) was greater than 100 µM, the “Delta of Log10 LC50” value (60 cell line panel) was -4.00 and the “Range of Log10 TGI” value (60 cell line panel) was 0.06. For the same compound, the “concentration for cytostasis (PG 0)” value (MOLT-4) was “greater than 10^-4 M”, the GI50 (A498; A498, renal cancer, 48 h, read-out: Log10 GI50 (converted)) was greater than 100 µM and the IC (TGI) (A498; A498, renal cancer, 48 h) was greater than 100 µM. The GI50 (OVCAR-8; OVCAR-8, ovarian cancer, 48 h, read-out: Log10 GI50 (converted)) was greater than 100 µM, the IC (TGI) (SN12C) was greater than 100 µM and the GI50 (KM12) was greater than 100 µM. The IC (TGI) (K-562; [2]) was 100 µM, the GI50 (NCI-H23; [1]) was greater than 100 µM and the GI50 (NCI-H226; NCI-H226, non-small cell lung cancer, 48 h, read-out: Log10 GI50 (converted)) was greater than 100 µM.
`C[C@H]1[C@@H](F)O[C@@H]2O[C@@]3(C)CC[C@H]4[C@H](C)CC[C@@H]1[C@@]24OO3` [Compound VI, 10β-Fluoro-10-deoxoartemisinin] was tested, and the CC50 (HCT-15; HCT-15, 48 h, read-out: Log10 LC50 (converted)) was greater than 100 µM, the CC50 (MCF7; MCF7, 48 h, read-out: Log10 LC50 (converted)) was greater than 100 µM and the IC (TGI) (MCF7; MCF7, breast cancer, 48 h) was greater than 100 µM. The CC50 (OVCAR-3; OVCAR-3, 48 h, read-out: Log10 LC50 (converted)) was greater than 100 µM, the IC (TGI) (OVCAR-3; OVCAR-3, ovarian cancer, 48 h, read-out: Log10 TGI (converted)) was greater than 100 µM and the CC50 (SNB-19; SNB-19, 48 h, read-out: Log10 LC50 (converted)) was greater than 100 µM. For the same compound, the IC (TGI) (SNB-19; SNB-19, CNS cancer, 48 h) was greater than 100 µM, the CC50 (SF-268; SF-268, 48 h, read-out: Log10 LC50 (converted)) was greater than 100 µM and the IC (TGI) (SF-268; SF-268, CNS cancer, 48 h, read-out: Log10 TGI) was greater than 100 µM. It also gave a CC50 (SK-MEL-28; SK-MEL-28, 48 h, read-out: Log10 LC50 (converted)) greater than 100 µM, an IC (TGI) (SK-MEL-28; SK-MEL-28, melanoma, 48 h, read-out: Log10 TGI) greater than 100 µM and a CC50 (SR) greater than 100 µM. For the same compound, the CC50 (SNB-75; SNB-75, 48 h, read-out: Log10 LC50 (converted)) was greater than 100 µM, the IC (TGI) (SNB-75; SNB-75, CNS cancer, 48 h, read-out: Log10 TGI) was greater than 100 µM and the CC50 (SK-OV-3; SK-OV-3, 48 h, read-out: Log10 LC50 (converted)) was greater than 100 µM. For the same compound, the GI50 (SK-OV-3; SK-OV-3, ovarian cancer, 48 h, read-out: Log10 GI50 (converted)) was 24 µM, the IC (TGI) (SK-OV-3; SK-OV-3, ovarian cancer, 48 h, read-out: Log10 TGI (converted)) was greater than 100 µM and the IC (TGI) (HOP-62; [2]) was 61.7 µM. The GI50 (UACC-62) was 2.34 µM, the IC (TGI) (UACC-62) was greater than 100 µM and the CC50 (BT-549) was greater than 100 µM. For the same compound, the CC50 (NCI-H322M) was greater than 100 µM, the CC50 (UACC-257; [3]) was greater than 100 µM and the IC (TGI) (UACC-257) was greater than 100 µM. It also gave an IC (TGI) (CAKI-1) of 21.4 µM, a CC50 (HOP-92; HOP-92, 48 h, read-out: Log10 LC50 (converted)) greater than 100 µM and an IC (TGI) (HOP-92; HOP-92, non-small cell lung cancer, 48 h, read-out: Log10 TGI (converted)) of 21.4 µM. For the same compound, the “Delta of Log10 TGI” value (60 cell line panel) was 1.18, the “Range of Log10 TGI” value (60 cell line panel) was 1.56 and the CC50 (A498; A498, 48 h, read-out: Log10 LC50 (converted)) was greater than 100 µM. For the same compound, the IC (TGI) (A498; A498, renal cancer, 48 h) was greater than 100 µM, the CC50 (OVCAR-8; OVCAR-8, 48 h, read-out: Log10 LC50 (converted)) was greater than 100 µM and the CC50 (SN12C; [3]) was greater than 100 µM. The IC (TGI) (SN12C) was greater than 100 µM, the CC50 (KM12; KM12, 48 h, read-out: Log10 LC50 (converted)) was greater than 100 µM and the GI50 (KM12) was 0.437 µM. It also gave a CC50 (K-562; [3]) greater than 100 µM, a CC50 (NCI-H23; [3]) greater than 100 µM and a CC50 (NCI-H226; NCI-H226, 48 h, read-out: Log10 LC50 (converted)) greater than 100 µM. For the same compound, the IC (TGI) (NCI-H226; NCI-H226, non-small cell lung cancer, 48 h, read-out: Log10 TGI) was greater than 100 µM.
